The results in this text go back to patent publication US11992473B2, “Compositions and methods for diagnosis and treatment of conditions related to the quality of aging and longevity” (Epitracker, Inc., priority 2018, dated 2024).

Each structure is given as a SMILES string.

What all share (type): cell-based, human
For one test, the system named is Dermal fibroblasts. Description: BioMAP Diversity PLUS HDF3CGF system (wound healing and matrix/tissue remodeling). Conditions: for decorin: fibrosis and chronic inflammation (FIG. 7). As to the method: (§1) This study examined activities of small molecules discovered in dolphin serum that had protective profiles against diseases of aging which can impact quality of life and longevity. These molecules were tested across 12 human primary cell-based systems as part of DiscoverX's BioMAP Diversity Plus program. These systems are designed to model complex human tissue and disease biology of the vasculature, skin, lung, and inflammatory tissues. Quantitative measurements of biomarker activities across this broad panel, along with comparative analysis of biological activities of known bioactive agents were used to predict and compare the efficacy and function of the four compounds. Compounds were tested at four concentrations (740 nm and 2.2, 6.7 and 20 μM).
(§2) BioMAP panels consist of human primary cell-based systems designed to model different aspects of the human body in an in vitro format. The 12 systems in the Diversity PLUS panel allow test agent characterization in an unbiased way across a broad set of systems modeling various human disease states. BioMAP systems are constructed with one or more primary cell types from healthy human donors, with stimuli (such as cytokines or growth factors) added to capture relevant signaling networks that naturally occur in human tissue or pathological conditions. Vascular biology is modeled in both a Th1 (3C system) and a Th2 (4H system) inflammatory environment, as well as in a Th1 inflammatory state specific to arterial smooth muscle cells (CASM3C system). Additional systems recapitulate aspects of the systemic immune response including monocyte-driven Th1 inflammation (LPS system) or T cell stimulation (SAg system), chronic Th1 inflammation driven by macrophage activation (lMphg system) and the T cell-dependent activation of B cells that occurs in germinal centers (BT system). The BE3C system (Th1) and the BF4T system (Th2) represent airway inflammation of the lung, while the MyoF system models myofibroblast-lung tissue remodeling. Lastly, skin biology is addressed in the KF3CT system modeling Th1 cutaneous inflammation and the HDF3CGF system modeling wound healing.
(§3) Each test agent generates a signature BioMAP profile that is created from the changes in protein biomarker readouts within individual system environments. Biomarker readouts (7-17 per system) are selected for therapeutic and biological relevance, are predictive for disease outcomes or specific drug effects and are validated using agents with known mechanism of action (MoA). Each readout is measured quantitatively by immune-based methods that detect protein (e.g., ELISA) or functional assays that measure proliferation and viability. BioMAP readouts are diverse and include cell surface receptors, cytokines, chemokines, matrix molecules and enzymes.
(§4) The Diversity PLUS panel allows test agent characterization in an unbiased way across a broad set of systems modeling various human disease states. These systems are designed to model complex human tissue and disease biology of the vasculature, skin, lung, and inflammatory tissues.
(§5) BioMAP systems are constructed with one or more primary cell types from healthy human donors, with stimuli (such as cytokines or growth factors) added to capture relevant signaling networks that naturally occur in human tissue or pathological conditions. Vascular biology is modeled in both a Th1 (3C system) and a Th2 (4H system) inflammatory environment, as well as in a Th1 inflammatory state specific to arterial smooth muscle cells (CASM3C system). Additional systems recapitulate aspects of the systemic immune response including monocyte-driven Th1 inflammation (LPS system) or T cell stimulation (SAg system), chronic Th1 inflammation driven by macrophage activation (lMphg system) and the T cell-dependent activation of B cells that occurs in germinal centers (BT system).

For test [1], the system named is Venular endothelial cells, peripheral blood mononuclear cells. Nature of the test: BioMAP Diversity PLUS SAg system (T cell stimulation, Th1 type chronic inflammation). Conditions: for T cell proliferation: concentrations ranging from 740 nm to 6.7 μM (FIG. 2); for Significant log10 reduction compared to nontreated controls: Monocyte chemoattractant protein 1 (MCP-1) / Significant log10 reduction compared to nontreated controls: T cell proliferation: SAg system. As to the method: as §1, §2
as §3, with “enzymes. In total, the Diversity PLUS panel contains 148 biomarker readouts that capture biological changes that occur within the physiological context of the particular BioMAP system. Specific BioMAP activities have been correlated to in vivo biology, and multiparameter BioMAP profiles have been used to distinguish compounds based on MoA and target selectivity across diverse physiological systems.” for “enzymes.”
(§6) The Diversity PLUS panel allows test agent characterization in an unbiased way across a broad set of systems modeling various human disease states. These systems are designed to model complex human tissue and disease biology of the vasculature, skin, lung, and inflammatory tissues. Quantitative measurements of 148 biomarker activities across this broad panel, along with comparative analysis of biological activities from known bioactive agents, were used to predict and compare the efficacy and function of each selected compound at four concentrations (740 nm and 2.2, 6.7 and 20 μM). […]

The test system of test [2] is Peripheral blood mononuclear cells, B cells. Nature of the test: BioMAP Diversity PLUS BT system (T cell dependent B cell activation). Conditions: for interleukin 17A (IL-17A): human cell system mimicking asthma, autoimmunity and allergies (FIG. 5). On the procedure: as §1, §2, §3, §4, §5
Test [3] deals with Venular endothelial cells, peripheral blood mononuclear cells. Nature of the test: BioMAP Diversity PLUS LPS system (Th1 type chronic inflammation, monocyte activation). The following applies: for secretion of prostaglandin E2 (PGE2): human cell system mimicking T-cell and monocyte driven chronic inflammation and cardiovascular diseases (FIG. 4). On the procedure: as §1, §2, §3, §4, §5

The subject of the next test is Lung fibroblasts. Nature of the test: BioMAP Diversity PLUS MyoF system (myofibroblast differentiation and tissue remodeling). As to the method:
as §1, §2
as §3, with “enzymes. In total, the Diversity PLUS panel contains 148 biomarker readouts that capture biological changes that occur within the physiological context of the particular BioMAP system. Specific BioMAP activities have been correlated to in vivo biology, and multiparameter BioMAP profiles have been used to distinguish compounds based on MoA and target selectivity across diverse physiological systems.” for “enzymes.”
as §6

For test [4], the system named is Macrophages, venular endothelial cells. Description: BioMAP Diversity PLUS lMphg system (Th1 type chronic inflammation, macrophage activation). The following applies: /Mphg system; 2.2 μM. On the procedure:
as §1, §2
as §3, with “enzymes. In total, the Diversity PLUS panel contains 148 biomarker readouts that capture biological changes that occur within the physiological context of the particular BioMAP system. Specific BioMAP activities have been correlated to in vivo biology, and multiparameter BioMAP profiles have been used to distinguish compounds based on MoA and target selectivity across diverse physiological systems.” for “enzymes.”
as §6

Where [5] appears, read: human cell system mimicking wound healing, remodeling.
[6] abbreviates: human cell system mimicking T-cell driven chronic inflammation and autoimmune diseases.

Regarding `O=C(O)[C@@H]1C[C@@H](O)CN1` (relative stereo) [Trans-4-hydroxyproline], the decorin result in the test on Dermal fibroblasts (setting [5]) was “inhibitory activity”. Further, in test [1] (setting [6]), the T cell proliferation entry is listed as “decreased”. The “interleukin 17A (IL-17A)” value in test [2] is listed as “lowered”.
`CCCCCCCCCCCCCCC(=O)O` [Pentadecanoate (C15:0), pentadecanoate]: in the test on Dermal fibroblasts (HDF3CGF system, 6.7 μM), the “Significant log10 reduction compared to nontreated controls: 72-hour fibroblast proliferation” value is −0.67 log10, the “Significant log10 reduction compared to nontreated controls: Collagen I” value was −0.07 log10 and the “Significant log10 reduction compared to nontreated controls: Plasminogen activation inhibitor 1 (PAI-1)” value is reported as −0.08 log10. In addition, in the test on Dermal fibroblasts (HDF3CGF system, 20.0 μM), the “Significant log10 reduction compared to nontreated controls: 72-hour fibroblast proliferation” value is −1.1 log10, the “Significant log10 reduction compared to nontreated controls: Collagen I” value was −0.13 log10, the “Significant log10 reduction compared to nontreated controls: Collagen III” value is −0.13 log10 and the “Significant log10 reduction compared to nontreated controls: Interferon gamma-induced protein 10 (IP-10)/CXCL10” value is −0.14 log10. Also, in the test on Dermal fibroblasts (HDF3CGF system, 20.0 μM), the “Significant log10 reduction compared to nontreated controls: Interferon-inducible T cell alpha chemoattractant (I-TAC)/CXCL11” value is reported as −0.17 log10, the “Significant log10 reduction compared to nontreated controls: Monokine induced by gamma interferon (MIG)/CXCL9” value is on record as −0.10 log10, the “Significant log10 reduction compared to nontreated controls: Plasminogen activation inhibitor 1 (PAI-1)” value is given as −0.13 log10 and the “Significant log10 reduction compared to nontreated controls: Vascular cell adhesion molecule 1 (VCAM-1)” value is −0.28 log10. The “Significant log10 reduction compared to nontreated controls: Monocyte chemoattractant protein 1 (MCP-1)” value (shortened to “Significant log10 reduction … (MCP-1)”) in test [1] (6.7 μM) was −0.18 log10. Also, the “Significant log10 reduction … (MCP-1)” value in test [1] (20.0 μM) was −0.15 log10. In test [2] (BT system, 2.2 μM), the “Significant log10 reduction compared to nontreated controls: Secreted interleukin 17A (IL-17A)” value (shortened to “Significant log10 reduction … (IL-17A)”) was −0.25 log10 and the “Significant log10 reduction compared to nontreated controls: Secreted interleukin 17F (IL-17F)” value (shortened to “Significant log10 reduction … (IL-17F)”) is recorded as −0.16 log10. In addition, the “Significant log10 reduction compared to nontreated controls: Secreted immunoglobulin G (IgG)” value in test [2] (BT system, 6.7 μM) is given as −0.17 log10. Further, in test [2] (BT system, 20.0 μM), the “Significant log10 reduction compared to nontreated controls: Secreted immunoglobulin G (IgG)” value was −0.55 log10, the “Significant log10 reduction compared to nontreated controls: Secreted interleukin 6 (IL-6)” value is on record as −0.29 log10, the “Significant log10 reduction … (IL-17A)” value is −0.29 log10 and the “Significant log10 reduction … (IL-17F)” value is −0.18 log10.
As to `NCCCCC(=O)O` [5-aminovalerate], the decorin result in the test on Dermal fibroblasts (setting [5]) is “inhibitory activity”. Also, the “Significant log10 reduction compared to nontreated controls: Secreted prostaglandin E2 (PGE2)” value in test [3] (LPS system, 6.7 μM) was −0.10 log10. Also, the “secretion of prostaglandin E2 (PGE2)” value in test [3] is reported as “lowered”. The “Significant log10 reduction compared to nontreated controls: Decorin” value in the test on Lung fibroblasts (6.7 μM) was −0.07 log10; in the test on Lung fibroblasts (20.0 μM), −0.10 log10. For the same compound, the “Significant log10 reduction compared to nontreated controls: T cell proliferation” value in test [1] (0.7 μM) is recorded as −0.7 log10; in test [1] (2.2 μM), −0.12 log10; in test [1] (6.7 μM), −0.14 log10. Besides, the T cell proliferation result in test [1] (setting [6]) is “decreased”. Moreover, in test [2] (BT system, 6.7 μM), the “Significant log10 reduction compared to nontreated controls: Tumor necrosis factor alpha (TNFα)” value is −0.11 log10.
Turning to `N[C@@H](CCC(=O)NCC(=O)O)C(=O)O` [Gamma-glutamylglycine], in the test on Dermal fibroblasts (setting [5]), the decorin result is given as “inhibitory activity”. Also, the “secretion of prostaglandin E2 (PGE2)” value in test [3] is “lowered”. Also, the “Significant log10 reduction compared to nontreated controls: T cell proliferation” value in test [1] (6.7 μM) is −0.11 log10; in test [1] (20.0 μM), −0.07 log10. For the same compound, in test [1] (human cell system mimicking T-cell driven chronic inflammation and autoimmune diseases, 740 nm, 2.2 μM, and 6.7 μM (FIG. 3)), the CD40 entry is on record as “lowered”. For the same compound, the T cell proliferation entry in test [1] (setting [6]) is listed as “decreased”. Moreover, in test [2] (BT system, 0.7 μM), the “Significant log10 reduction compared to nontreated controls: Secreted interleukin 17A” value is on record as −0.17 log10. In test [2] (BT system, 2.2 μM), the “Significant log10 reduction … (IL-17A)” value is recorded as −0.17 log10. In addition, in test [2], the “interleukin 17A (IL-17A)” value was “lowered”.
In the case of `CCCCCCC=CCCCCCCCCC(=O)O` [Compound 10-heptadecanoate], in test [2] (BT system, 6.7 μM), the “Significant log10 reduction compared to nontreated controls: Secreted interleukin 2 (IL-2)” value is −0.11 log10.
In the case of `CC(=O)NCCc1c[nH]cn1` [N-acetylhistamine], the “Significant log10 reduction compared to nontreated controls: Vascular cell adhesion molecule 1 (VCAM-1)” value with Dermal fibroblasts (HDF3CGF system, 6.7 μM) was −0.08 log10; in the test with Dermal fibroblasts (HDF3CGF system, 20.0 μM), −0.15 log10. In addition, the “Significant log10 reduction compared to nontreated controls: Collagen III” value in the test on Dermal fibroblasts (HDF3CGF system, 20.0 μM) is on record as −0.13 log10. Further, the “Significant log10 reduction compared to nontreated controls: Alpha smooth muscle actin (αSMA)” value was −0.05 log10 with Lung fibroblasts (0.7 μM), −0.06 log10 in the test on Lung fibroblasts (2.2 μM), −0.11 log10 in the test with Lung fibroblasts (6.7 μM) and −0.09 log10 in the test with Lung fibroblasts (20.0 μM). Also, the “Significant log10 reduction … (MCP-1)” value in test [4] is −0.26 log10. Besides, the “Significant log10 reduction compared to nontreated controls: B cell proliferation” value is on record as −0.12 log10 in test [2] (BT system, 2.2 μM); −0.06 log10 in test [2] (BT system, 6.7 μM); −0.08 log10 in test [2] (BT system, 20.0 μM). In addition, the “Significant log10 reduction … (IL-17A)” value in test [2] (BT system, 20.0 μM) is −0.19 log10. Moreover, the “Significant log10 reduction … (IL-17F)” value in test [2] (BT system, 20.0 μM) is −0.42 log10.
As for `NC(=O)NCCCC[C@H](N)C(=O)O` [Homocitrulline], the “interleukin 8 (IL-8)” value in the test on Dermal fibroblasts (human cell system mimicking wound healing, remodeling, fibrosis and chronic inflammation (FIG. 8)) is listed as “inhibitory activity”. In test [3], the “secretion of prostaglandin E2 (PGE2)” value is “lowered”. Besides, the T cell proliferation entry in test [1] (setting [6]) is given as “decreased”.
Turning to `O=C(O)Cc1c[nH]cn1` [4-imidazoleacetate], the “Significant log10 reduction compared to nontreated controls: T cell proliferation” value in test [1] (2.2 μM) was −0.11 log10; in test [1] (6.7 μM), −0.09 log10; in test [1] (20.0 μM), −0.09 log10. Besides, in test [1] (setting [6]), the T cell proliferation result is listed as “decreased”. The “Significant log10 reduction … (IL-17F)” value in test [2] (BT system, 0.7 μM) was −0.16 log10.
